Data reported in Sander's compilation of Henry's law constants (doi:10.1021/je00012a017).

Test: Henry solubility constant Hcp at 301 K (mol/(m3 Pa))
Conditions: reference: Hansen et al. (1993)

SMILES | Henry solubility constant Hcp at 301 K
C1CCCCC1 [cyclohexane] | 6e-05

Test: Henry solubility constant Hcp at 302 K (mol/(m3 Pa))
Conditions: reference: Hansen et al. (1993)

SMILES | Henry solubility constant Hcp at 302 K
c1ccccc1 [benzene] | 0.0015
Cc1ccccc1 [methylbenzene] | 0.0014

Test: Henry solubility constant Hcp at 298.15 K (mol/(m3 Pa))
Conditions: reference: Hansen et al. (1993)

SMILES | Henry solubility constant Hcp
CC(Cl)(Cl)Cl [1,1,1-trichloroethane] | 0.00059
ClCC(Cl)Cl [1,1,2-trichloroethane] | 0.012
Cc1ccc(C)c(C)c1 [1,2,4-trimethylbenzene] | 0.0015
Cc1ccc(C)cc1 [1,4-dimethylbenzene] | 0.0012
CCCCC(C)C [2-methylhexane] | 1.9e-05
Cc1ccc2ccccc2c1 [2-methylnaphthalene] | 5e-05
CC(C)c1ccccc1 [(2-propyl)-benzene] | 0.00087
Brc1ccccc1 [bromobenzene] | 0.0053
C1CCCC1 [cyclopentane] | 6.5e-05
CCCCCCC [heptane] | 1.2e-05
CC1CCCCC1 [methylcyclohexane] | 9.6e-05
CCCCCCCC [octane] | 3e-05
ClC(Cl)(Cl)Cl [tetrachloromethane] | 0.00033
